What was measured:
[1] = system: soybean; experiment: Test B pre/postemergence soybean; type: in vivo, Glycine max
How it was run: (§1)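 Response is a visual 0-to-10 score relative to untreated plants, where 0 means no effect and 10 means complete control, taken twelve to sixteen days after application. Treatments went onto soil at planting and onto foliage of 1- to 4-leaf plants, using a surfactant-containing non-phytotoxic solvent.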

[2] = system: rice; experiment: Test B flood test rice; type: in vivo, Oryza sativa
How it was run: (§2)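 Read-out is a visual response score from 0 (no effect) to 10 (complete control), assigned by comparison with untreated controls. Treatment was applied at the 2-leaf stage, and plants stayed in the greenhouse for twelve to sixteen days before scoring.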

[3] = system: smallflower flatsedge; experiment: Test B flood test smallflower flatsedge; type: in vivo, Cyperus difformis
How it was run: as §2

[4] = system: surinam grass; experiment: Test B pre/postemergence surinam grass; type: in vivo, Brachiaria decumbens
How it was run: as §1

[5] = system: sugar beet; experiment: Test B pre/postemergence sugar beet; type: in vivo, Beta vulgaris
How it was run: as §1

[6] = system: giant foxtail; experiment: Test B pre/postemergence giant foxtail; type: in vivo, Setaria faberii
How it was run: as §1

[7] = system: cocklebur; experiment: Test B pre/postemergence cocklebur; type: in vivo, Xanthium strumarium
How it was run: as §1

[8] = system: blackgrass; experiment: Test B pre/postemergence blackgrass; type: in vivo, Alopecurus myosuroides
How it was run: as §1

[9] = system: rape; experiment: Test B pre/postemergence rape; type: in vivo, Brassica napus
How it was run: as §1

[10] = system: duck salad; experiment: Test B flood test duck salad; type: in vivo, Heteranthera limosa
How it was run: as §2

[11] = system: purple nutsedge; experiment: Test B pre/postemergence purple nutsedge; type: in vivo, Cyperus rotundus
How it was run: as §1

[12] = system: velvetleaf; experiment: Test B pre/postemergence velvetleaf; type: in vivo, Abutilon theophrasti
How it was run: as §1

[13] = system: corn; experiment: Test B pre/postemergence corn; type: in vivo, Zea mays
How it was run: as §1

[14] = system: wild oat; experiment: Test B pre/postemergence wild oat; type: in vivo, Avena fatua
How it was run: as §1

[15] = system: crabgrass; experiment: Test B pre/postemergence crabgrass; type: in vivo, Digitaria sanguinalis
How it was run: as §1

[16] = system: wheat; experiment: Test B pre/postemergence wheat; type: in vivo, Triticum aestivum
How it was run: as §1

[17] = system: morningglory; experiment: Test B pre/postemergence morningglory; type: in vivo, Ipomoea hederacea
How it was run: as §1

[18] = system: pigweed; experiment: Test B pre/postemergence pigweed; type: in vivo, Amaranthus retroflexus
How it was run: as §1

[19] = system: bamyardgrass; experiment: Test B flood test barnyardgrass; type: in vivo, Echinochloa crus-galli
How it was run: as §2

[20] = Postemergence, Rate 31 g/ha, visual rating, scale 0 to 10 (0 no effect, 10 complete control)
[21] = Postemergence, Rate 62 g/ha, scale 0 to 10, 0 is no effect, 10 is complete control
[22] = Postemergence, Rate 125 g/ha, scale of 0 to 10 where 0 is no effect and 10 is complete control
[23] = Preemergence, Rate 62 g/ha, scale of 0 to 10 where 0 is no effect and 10 is complete control
[24] = Preemergence, Rate 125 g/ha, scale of 0 to 10 where 0 is no effect and 10 is complete control
[25] = Preemergence, Rate 250 g/ha, scale 0 to 10 (0 no effect, 10 complete control)
[26] = Rate 31 g/ha, Pre-emergence section (flood test species), scale 0 to 10
[27] = Rate 62 g/ha, flood test species, Pre-emergence, visual evaluation after twelve to sixteen days
[28] = Rate 125 g/ha, under heading Pre-emergence, flood test species, visual evaluation after twelve to sixteen days
[29] = Rate 250 g/ha, Pre-emergence (flood test species), scale 0 to 10, 0 is no effect, 10 is complete control
[30] = Postemergence, Rate 250 g/ha, scale of 0 to 10, 0 is no effect, 10 is complete control
[31] = Preemergence, Rate 31 g/ha, visual rating, scale 0 to 10 (0 no effect, 10 complete control)

SMILES: CCOP(=O)(OCC)C(C)n1c(=O)on(C(=O)N(c2ccc(Cl)cc2)C(C)C)c1=O (centres unmarked) [Compound 644]
- Soybean plant response rating [1, 20]: 0
- Plant response rating, Soybean [1, 21]: 0
- Soybean plant response rating [1, 22]: 0
- Soybean plant response rating [1, 23]: 0
- Soybean plant response rating [1, 24]: 0
- Plant response rating, Soybean [1, 25]: 0
- Rice plant response rating [2, 26]: 0
- Plant response rating, Rice (0 to 10 scale, 0 is no effect, 10 is complete control) [2, 27]: 0
- Rice plant response rating (0 to 10 scale, 0 is no effect, 10 is complete control) [2, 28]: 0
- Rice plant response rating [2, 29]: 0
- S. Flatsedge plant response rating [3, 26]: 0
- Plant response rating, S. Flatsedge (0 to 10 scale, 0 is no effect, 10 is complete control) [3, 27]: 0
- S. Flatsedge plant response rating (0 to 10 scale, 0 is no effect, 10 is complete control) [3, 28]: 0
- S. Flatsedge plant response rating [3, 29]: 0
- B. signalgrass plant response rating [4, 20]: 0
- Plant response rating, B. signalgrass [4, 21]: 0
- Plant response rating, B. signalgrass [4, 22]: 0
- B. signalgrass plant response rating [4, 30]: 0
- B. signalgrass plant response rating [4, 31]: 0
- B. signalgrass plant response rating [4, 23]: 0
- B. signalgrass plant response rating [4, 24]: 0
- Plant response rating, B. signalgrass [4, 25]: 2
- Sugarbeets plant response rating [5, 20]: 0
- Plant response rating, Sugarbeets [5, 21]: 0
- Sugarbeets plant response rating [5, 22]: 0
- Sugarbeets plant response rating [5, 30]: 0
- Sugarbeets plant response rating [5, 23]: 0
- Sugarbeets plant response rating [5, 24]: 0
- Plant response rating, Sugarbeets [5, 25]: 0
- Giant foxtail plant response rating [6, 20]: 0
- Plant response rating, Giant foxtail [6, 21]: 0
- Giant foxtail plant response rating [6, 22]: 0
- Giant foxtail plant response rating [6, 30]: 0
- Giant foxtail plant response rating [6, 31]: 0
- Giant foxtail plant response rating [6, 23]: 0
- Giant foxtail plant response rating [6, 24]: 2
- Plant response rating, Giant foxtail [6, 25]: 6
- Cocklebur plant response rating [7, 20]: 0
- Plant response rating, Cocklebur [7, 21]: 0
- Cocklebur plant response rating [7, 22]: 0
- Cocklebur plant response rating [7, 30]: 0
- Cocklebur plant response rating [7, 31]: 0
- Cocklebur plant response rating [7, 23]: 0
- Cocklebur plant response rating [7, 24]: 0
- Plant response rating, Cocklebur [7, 25]: 0
- Blackgrass plant response rating [8, 20]: 0
- Plant response rating, Blackgrass [8, 21]: 0
- Blackgrass plant response rating [8, 22]: 0
- Blackgrass plant response rating [8, 30]: 0
- Blackgrass plant response rating [8, 31]: 0
- Blackgrass plant response rating [8, 23]: 0
- Blackgrass plant response rating [8, 24]: 0
- Plant response rating, Blackgrass [8, 25]: 0
- Rape plant response rating [9, 20]: 0
- Plant response rating, Rape [9, 21]: 0
- Rape plant response rating [9, 22]: 0
- Rape plant response rating [9, 30]: 0
- Rape plant response rating [9, 23]: 0
- Rape plant response rating [9, 24]: 0
- Plant response rating, Rape [9, 25]: 2
- Ducksalad plant response rating [10, 26]: 0
- Plant response rating, Ducksalad (0 to 10 scale, 0 is no effect, 10 is complete control) [10, 27]: 0
- Ducksalad plant response rating (0 to 10 scale, 0 is no effect, 10 is complete control) [10, 28]: 0
- Ducksalad plant response rating [10, 29]: 0
- Nutsedge plant response rating [11, 20]: 0
- Nutsedge plant response rating [11, 22]: 0
- Nutsedge plant response rating [11, 23]: 0
- Nutsedge plant response rating [11, 24]: 0
- Velvetleaf plant response rating [12, 20]: 0
- Plant response rating, Velvetleaf [12, 21]: 0
- Velvetleaf plant response rating [12, 22]: 0
- Velvetleaf plant response rating [12, 30]: 0
- Velvetleaf plant response rating [12, 23]: 0
- Velvetleaf plant response rating [12, 24]: 0
- Plant response rating, Velvetleaf [12, 25]: 0
- Corn plant response rating [13, 20]: 0
- Plant response rating, Corn [13, 21]: 0
- Corn plant response rating [13, 22]: 0
- Corn plant response rating [13, 30]: 0
- Corn plant response rating [13, 31]: 0
- Corn plant response rating [13, 23]: 0
- Corn plant response rating [13, 24]: 0
- Plant response rating, Corn [13, 25]: 0
- Wild oats plant response rating [14, 20]: 0
- Plant response rating, Wild oats [14, 21]: 0
- Wild oats plant response rating [14, 22]: 0
- Wild oats plant response rating [14, 30]: 0
- Wild oats plant response rating [14, 23]: 0
- Wild oats plant response rating [14, 24]: 0
- Plant response rating, Wild oats [14, 25]: 0
- Crabgrass plant response rating [15, 20]: 0
- Plant response rating, Crabgrass [15, 21]: 0
- Crabgrass plant response rating [15, 22]: 0
- Crabgrass plant response rating [15, 30]: 0
- Crabgrass plant response rating [15, 31]: 2
- Crabgrass plant response rating [15, 23]: 2
- Plant response rating, Crabgrass [15, 25]: 3
- Wheat plant response rating [16, 20]: 0
- Plant response rating, Wheat [16, 21]: 0
- Wheat plant response rating [16, 22]: 0
- Wheat plant response rating [16, 30]: 0
- Wheat plant response rating [16, 23]: 0
- Wheat plant response rating [16, 24]: 0
- Plant response rating, Wheat [16, 25]: 0
- Morningglory plant response rating [17, 20]: 0
- Plant response rating, Morningglory [17, 21]: 0
- Morningglory plant response rating [17, 22]: 0
- Morningglory plant response rating [17, 30]: 0
- Morningglory plant response rating [17, 23]: 0
- Morningglory plant response rating [17, 24]: 0
- Plant response rating, Morningglory [17, 25]: 3
- Redroot pigweed plant response rating [18, 20]: 2
- Plant response rating, Redroot pigweed [18, 21]: 2
- Redroot pigweed plant response rating [18, 22]: 3
- Redroot pigweed plant response rating [18, 30]: 3
- Redroot pigweed plant response rating [18, 23]: 0
- Redroot pigweed plant response rating [18, 24]: 0
- Plant response rating, Redroot pigweed [18, 25]: 0
- Barnyardgrass plant response rating [19, 26]: 0
- Plant response rating, Barnyardgrass (0 to 10 scale, 0 is no effect, 10 is complete control) [19, 27]: 0
- Barnyardgrass plant response rating (0 to 10 scale, 0 is no effect, 10 is complete control) [19, 28]: 0
- Barnyardgrass plant response rating [19, 29]: 0

Source: patent US6737383B1, “Herbicidal oxadiazolidines” (priority 1999, dated 2004)
